{"source": "patent US20090220566A1", "about": "“BIOIMPLANTS FOR USE IN TISSUE GROWTH” (priority 2006, published 2009)", "system": "tissue ingrowth, specifically angiogenesis and vascularization", "details": "for wound tissue / tissue ingrowth in the pores (histological sections): 3 μl per half implant of 70 μM salt in Hank's balanced salt solution on the closed pore; for conclusion on stimulation of wound healing: selenium at 0.25 ng/mm^3 of the implant, cobalt at 0.45 ng per mm^3 of the implant", "procedure": "Brushite and hydroxyapatite cuboid bioimplants (434±4 mg dry weight) with a 2D branched structure (Y-shape pore) were produced by cement printing following a method previously developed (Hölzel, 2005). The pore was 1.31 mm diameter and open in the middle of one smaller face and decreased in diameter to 1 mm as it branched in the centre of the block. One branch emerged on an adjacent face while the other was a ‘blind’ closed pore. 5 μl of 70 μM copper sulphate solution was deposited at the end of the blind closed pore of the Y as represented in FIG. 2B. This solution thus contained a total of […] of copper sulphate, i.e. 22 ng of copper ions. It was absorbed onto a small localised volume ca 5 mm^3, of the implant of dimensions 8×8×4 mm, (approximately 250 mm^3). This copper thus represented 88 ng per cm^3.\nBrushite and hydroxyapatite materials were implanted in animals for 15 days in order to observe tissue ingrowth, specifically angiogenesis and vascularization. In order to facilitate observation of tissue ingrowth the implants were made in two mirror image halves that keyed into one another and split the pore cavity along its symmetrical axis (FIG. 2). A 5 μl solution of copper sulfate at low concentration (0.07 mM) was deposited at the end of the closed pore, dried, and implanted in the abdominal cavity (i.e., intraperitoneally) in mice for 15 days. The retrieved implants were opened and examined for tissue ingrowth (FIG. 2C). […] This is in comparison to control implants with no adsorption of copper (FIG. 2D).\nSimilar to the implants with copper as described above, solutions (3 μl per half implant) of manganese chloride, sodium selenium, silver nitrate, zinc chloride, and cobalt chloride diluted in Hank's balanced salt solution (vehicle) were adsorbed on the closed pore on each half. They were used respectively at 70 μM. The final amounts of the metals ranged from 10 to 200 ng per implant. These conditions were compared to vehicle (HBBS) as control and copper (70 μM)\nAfter 15 days of implantation in peritoneal site in mice, the implants were retrieved and histological sections of the tissue ingrowth in the pores were processed.", "key": {"[1]": {"details": "3 μl per half implant of 70 μM salt on the closed pore, 15 days peritoneal site in mice"}, "[2]": {"details": "15 days peritoneal site in mice"}}, "data": [{"compound": "O=[N+]([O-])[O-].[Ag+]", "note": "[silver, silver nitrate]", "values": [{"measurement": "orientation of tissue ingrowth towards the closed (loaded) pore", "setting": "[1]", "value": "no orientation towards the closed pore"}]}, {"compound": "VEGF", "values": [{"measurement": "mean blood vessel in-growth distance", "setting": "mouse, in vivo", "value": 3.7, "unit": "mm"}, {"measurement": "mean distance over which blood vessels were observed to grow from the large pore opening to the closed pore end", "setting": "mouse, in vivo", "value": "nearly the entire length"}]}, {"compound": "manganese chloride", "values": [{"measurement": "wound tissue / tissue ingrowth in the pores (histological sections)", "setting": "[2]", "value": "a bloody tissue was formed in the pores"}]}, {"compound": "[Cl-].[Cl-].[Zn+2]", "note": "[zinc, zinc chloride]", "values": [{"measurement": "orientation of tissue ingrowth towards the closed (loaded) pore", "setting": "[1]", "value": "no orientation towards the closed pore"}]}, {"compound": "[Cl][Co][Cl]", "note": "[cobalt, cobalt chloride]", "values": [{"measurement": "microvessels by histology", "setting": "[1]", "value": "microvessels with transgression of inflammatory cells were observed"}, {"measurement": "conclusion on stimulation of wound healing", "value": "enhances particularly blood vessel formation"}]}, {"compound": "O=S(=O)([O-])[O-].[Cu+2]", "note": "[copper sulfate]", "values": [{"measurement": "blood vessels observed", "setting": "mouse, in vivo", "value": "No blood vessels were observed"}, {"measurement": "concentrations of copper suitable to encourage endothelial cell growth into a 1.3 mm diameter pore opening at the surface of an implant", "setting": "mouse, in vivo", "value": "below 20 μg/mm^3"}, {"measurement": "mean blood vessel in-growth distance", "setting": "mouse, in vivo", "value": 4.3, "unit": "mm"}, {"measurement": "mean distance over which blood vessels were observed to grow from the large pore opening to the closed pore end", "setting": "mouse, in vivo", "value": "nearly the entire length"}, {"measurement": "tissue infiltrating the pore", "setting": "mouse, in vivo", "value": "tissue rich in leukocytes and dead cells"}, {"measurement": "tissue ingrowth in the pores", "setting": "mouse, in vivo", "value": "vascular tissue"}]}, {"compound": "O=[Se]([O-])[O-].[Na+].[Na+]", "note": "[selenium, sodium selenium]", "values": [{"measurement": "wound tissue / tissue ingrowth in the pores (histological sections)", "setting": "[2]", "value": "immature wound tissue"}, {"measurement": "orientation of tissue ingrowth towards the closed (loaded) pore", "setting": "[1]", "value": "oriented towards the closed pore"}, {"measurement": "conclusion on stimulation of wound healing", "value": "may enhance tissue maturation"}]}]}
